One compound from patent publication US8008346B2, “Chemotherapeutic agents for inhibition of protein translation” (The Royal University for the Advancement of Learning/McGill …, priority 2006, dated 2011) can be followed below.

The target of experiment [1] is T1, eIF4AIf (Mus musculus, UniProt P60843).
T1 construct: inferred only from the Ni-NTA purification; made in house; host or cells: Escherichia coli BL21 (DE3) codon+
Kind of experiment: Crosslinking of oxidized 32P-cap labeled CAT mRNA to recombinant eIF4AIf (RNA binding). Set-up: species or system murine. The following applies: 50 μM. As to the method:
(§1) FIG. 7. Effects of hippuristanol on ATP hydrolysis, ATP binding, and RNA binding activities of eIF4A. A. Hippuristanol inhibits eIF4AIf RNA-dependent ATPase activity. The rate of ATP hydrolysis as a function of hippuristanol concentration is plotted relative to the rate obtained in the presence of vehicle (0.5% DMSO). ATP hydrolysis was measured in the presence of 2.5 μM poly (U) and monitored by thin layer chromatography. […] Samples were resolved by SDS-PAGE and subjected to autoradiography. C. The RNA binding activity of eIF4AIf is inhibited by hippuristanol. Oxidized ^32P-cap labeled CAT mRNA was incubated with recombinant eIF4AIf in the absence (lane 2) or presence of ATP (lanes 1, 3-6), 0.6 mM m^7GDP (lane 3), 0.6 mM GDP (lane 4), or 50 μM hippuristanol (lane 6). Following treatment with RNase A, samples were resolved by SDS-PAGE and subjected to autoradiography. The asterisk denotes the position of migration of a ˜30 kDa contaminant in the recombinant eIF4AIf preparation used as an internal loading reference. D. The RNA binding activity of eIF4Ac is inhibited by hippuristanol. Oxidized ^32P-cap labeled CAT mRNA was incubated with 0.7 μg of native eIF4F in the absence (lane 1) or presence (lane 2) of 50 μM hippuristanol. […]
(§2) Ribosome Binding and mRNA Crosslinking. […] Fractions of 500 μl were collected and radioactivity was determined by scintillation counting. […]

In experiment [2] the test system is 80S complex formation. Nature of the experiment: Ribosome binding (80S complex formation) of 32P-labeled CAT mRNA in rabbit reticulocyte lysate. The following applies: CAT mRNA/CHX + 50 μM hippuristanol; CHX alone 22% binding. The format is biochemical. As to the method: (§3) FIG. 6. Hippuristanol inhibits translation initiation. A. Hippuristanol inhibits 80S complex formation. ^32P-labeled CAT mRNA was incubated in rabbit reticulocyte lysate with cycloheximide (CHX) in the presence or absence of 50 μM hippuristanol. Complexes were resolved on glycerol gradients. Total counts recovered from each gradient and the percent mRNA bound in 80S complexes were: CAT mRNA/CHX [43,498 cpm, 22% binding] and CAT mRNA/CHX+Hipp. [45,279 cpm, 5.7% binding]. B. Hippuristanol inhibits crosslinking of eIF4Ac and eIF4B to capped mRNA. Initiation factors were chemically crosslinked to ^32P cap-labeled mRNA in the absence (lane 2) or presence of ATP (lanes 1, 3-6), 0.6 mM m^7GDP (lane 3), 0.6 mM GDP (lane 4), or 50 μM hippuristanol (lane 6). Following nuclease digestion, samples were resolved by SDS-PAGE and the gel subjected to autoradiography.
(§4) Ribosome Binding and mRNA Crosslinking. Ribosome binding assays were performed by incubating ^32P-labelled CAT mRNA in rabbit reticulocyte lysate or wheat germ extracts in the presence of: 600 μM cycloheximide (CHX), 1 mM GMP-PNP, and/or 50 μM hippuristanol or vehicle for 10 min (33). […] Fractions of 500 μl were collected and radioactivity was determined by scintillation counting. […]

In experiment [3] the target is T2, eIF4Ac and eIF4B (Homo sapiens, UniProt P60842).
T2 construct: Chemical crosslinking of initiation factor preparations to ^32P cap-labeled oxidized CAT mRNA
Kind of experiment: Chemical crosslinking of initiation factors to 32P cap-labeled mRNA. The following applies: 50 μM, in presence of ATP. The format is binding. As to the method: as §3, §4

For experiment [4], the system named is Mahoney strain of poliovirus type 1. The format is cell-based. To be noted: HeLa cells, 2 pfu/cell, 80 nM.
The target in experiment [5] is eIF4Ac (Homo sapiens, UniProt P60842). Kind of experiment: Crosslinking of oxidized 32P-cap labeled CAT mRNA to native eIF4F (RNA binding). To be noted: 50 μM, 0.7 μg native eIF4F. As for the experimental part: as §1, §2
Chain of eIF4Ac (P60842 whole entry): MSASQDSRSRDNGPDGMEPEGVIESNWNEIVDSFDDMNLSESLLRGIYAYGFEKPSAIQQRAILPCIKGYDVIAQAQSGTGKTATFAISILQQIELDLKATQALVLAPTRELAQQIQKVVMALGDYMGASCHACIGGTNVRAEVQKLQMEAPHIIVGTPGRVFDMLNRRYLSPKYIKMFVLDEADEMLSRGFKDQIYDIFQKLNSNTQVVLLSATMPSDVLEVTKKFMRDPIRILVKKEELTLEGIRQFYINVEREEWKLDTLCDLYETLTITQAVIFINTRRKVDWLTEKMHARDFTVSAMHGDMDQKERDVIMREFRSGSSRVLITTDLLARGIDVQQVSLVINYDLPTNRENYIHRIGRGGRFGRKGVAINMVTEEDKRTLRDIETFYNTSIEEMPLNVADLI
Chain of eIF4Ac (P06730 whole entry partner): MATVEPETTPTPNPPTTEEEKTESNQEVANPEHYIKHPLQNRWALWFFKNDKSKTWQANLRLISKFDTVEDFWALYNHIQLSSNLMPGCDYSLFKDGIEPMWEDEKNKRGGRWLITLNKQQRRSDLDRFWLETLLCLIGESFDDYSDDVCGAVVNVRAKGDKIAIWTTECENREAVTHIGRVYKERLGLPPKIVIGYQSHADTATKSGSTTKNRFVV
Chain of eIF4Ac (Q04637 whole entry partner): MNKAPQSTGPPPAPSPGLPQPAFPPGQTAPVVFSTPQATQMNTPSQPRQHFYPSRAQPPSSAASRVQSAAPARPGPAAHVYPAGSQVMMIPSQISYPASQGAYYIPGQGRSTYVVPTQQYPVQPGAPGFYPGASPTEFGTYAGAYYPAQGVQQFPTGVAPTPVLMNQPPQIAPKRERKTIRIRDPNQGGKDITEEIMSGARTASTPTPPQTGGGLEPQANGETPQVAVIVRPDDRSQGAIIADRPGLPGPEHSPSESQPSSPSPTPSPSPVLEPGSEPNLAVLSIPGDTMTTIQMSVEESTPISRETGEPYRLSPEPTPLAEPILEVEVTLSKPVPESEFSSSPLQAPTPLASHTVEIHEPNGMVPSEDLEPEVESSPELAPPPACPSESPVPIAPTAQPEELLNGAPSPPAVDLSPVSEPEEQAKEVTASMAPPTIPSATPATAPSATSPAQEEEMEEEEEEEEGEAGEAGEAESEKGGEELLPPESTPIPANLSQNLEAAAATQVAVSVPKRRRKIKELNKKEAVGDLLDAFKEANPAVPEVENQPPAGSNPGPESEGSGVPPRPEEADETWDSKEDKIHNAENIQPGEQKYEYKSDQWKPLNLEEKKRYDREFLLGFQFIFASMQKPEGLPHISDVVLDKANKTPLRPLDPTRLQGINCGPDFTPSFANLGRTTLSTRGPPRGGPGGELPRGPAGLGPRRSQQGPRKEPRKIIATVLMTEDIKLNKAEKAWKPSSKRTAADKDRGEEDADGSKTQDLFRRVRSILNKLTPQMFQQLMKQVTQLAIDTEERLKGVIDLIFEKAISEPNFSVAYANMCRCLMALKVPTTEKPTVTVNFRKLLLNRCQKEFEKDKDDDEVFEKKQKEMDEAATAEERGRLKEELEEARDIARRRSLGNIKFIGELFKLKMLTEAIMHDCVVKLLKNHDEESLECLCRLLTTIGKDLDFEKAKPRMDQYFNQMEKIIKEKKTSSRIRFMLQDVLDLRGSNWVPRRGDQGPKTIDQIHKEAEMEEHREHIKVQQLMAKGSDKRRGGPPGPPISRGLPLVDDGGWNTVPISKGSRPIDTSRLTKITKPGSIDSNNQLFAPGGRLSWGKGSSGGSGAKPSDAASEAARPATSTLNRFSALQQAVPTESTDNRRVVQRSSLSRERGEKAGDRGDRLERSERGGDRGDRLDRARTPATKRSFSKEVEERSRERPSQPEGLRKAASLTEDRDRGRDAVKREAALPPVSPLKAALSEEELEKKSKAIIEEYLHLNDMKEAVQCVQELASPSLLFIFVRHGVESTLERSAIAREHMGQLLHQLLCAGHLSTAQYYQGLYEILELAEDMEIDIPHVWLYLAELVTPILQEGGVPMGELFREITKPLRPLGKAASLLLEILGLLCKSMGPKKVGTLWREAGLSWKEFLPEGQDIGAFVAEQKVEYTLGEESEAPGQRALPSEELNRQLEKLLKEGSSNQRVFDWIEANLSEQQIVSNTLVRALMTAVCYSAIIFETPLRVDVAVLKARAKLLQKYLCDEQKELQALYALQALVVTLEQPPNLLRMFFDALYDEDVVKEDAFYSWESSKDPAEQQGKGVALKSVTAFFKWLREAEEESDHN

T2 sequence (P60842 whole entry): as the sequence (P60842 whole entry) above
T2 sequence (Q04637 whole entry partner): as the sequence (Q04637 whole entry partner) above
T2 sequence (P06730 whole entry partner): as the sequence (P06730 whole entry partner) above
T1 sequence (P60843 whole entry): as the sequence (P60842 whole entry) above

For `C[C@H]1C[C@@]2(O[C@H]3C[C@H]4[C@@H]5CC[C@H]6C[C@H](O)CC[C@]6(C)[C@H]5[C@@H](O)C[C@]4(C)[C@H]3[C@@]2(C)O)OC1(C)C` [Hippuristanol, hippuristanol], the “RNA binding activity of eIF4AIf” value in experiment [1] is recorded as “inhibited”. In experiment [2], the “percent mRNA bound in 80S complexes” value worked out at 5.7%. Also, the “crosslinking of eIF4Ac and eIF4B to capped mRNA” value in experiment [3] is given as “inhibits”. In addition, in experiment [4], the “eIF4GII cleavage following poliovirus infection” value is on record as “delays” and the “onset of poliovirus proteins during infection” value is on record as “delays”. In addition, the “RNA binding activity of eIF4Ac” value in experiment [5] is given as “inhibited”.
